Results taken from patent US5342834A, “Method for androgen supplementation” (priority 1992, dated 1994).
Entries after “also recorded” stand apart in the source; their conditions may differ.

Experiments:
[1] = Metabolism (decrease of steroid level) in incubation with rat liver microsomes; type: in vitro ADME
Description: (§1) To prepare rat liver microsomes and cytosol, thawed livers were homogenized in 4 vol. of TED buffer (10mM Tricine, 1.5 mM EDTA, 1 mM dithiothreitol, pH 7.4) using a glass homogenizer and a loosefitting Teflon piston for nine strokes with intermittent cooling. This and all subsequent steps were performed at 4° C. The homogenate was spun at 13000×g for 30 min in a Sorvall refrigerated centrifuge. The supernatant fraction was recentrifuged at 13000×g for another 30 min. The resulting supernatant fraction (13K supernatant) was centrifuged at 105,000×g using a Beckman Ultracentrifuge (Model L) for 60 min. The 105K supernatant (cytosol) was saved. The microsomal pellet was resuspended in TED buffer, and spun down again at 105,000×g. The resulting pellet is known as the 105K pellet of the microsome fraction (or "microsome") .
(§2) Incubation mixtures consisted of 52 nmol of unlabeled steroid (T, 7MNT or 19NT), approximately 40,000 CPM of the corresponding tritiated steroid and 5 umol of NADPH in 0.2 ml TED buffer (pH 7.4). This was incubated for 10 min at 37° C. in a constant temperature water bath. Reaction was initiated by the addition of 0.8 ml of either 13K supernatant, microsomes or cytosol, containing 7.05, 0.62 or 5.64 mg/ml of protein, respectively. Incubations were quenched with 2 ml of ethyl acetate, vortexed briefly, and frozen in a dry ice-alcohol bath. The ethyl acetate was separated from the frozen aqueous phase. Extraction was performed again in the same way. The combined organic phase was evaporated and the remaining steroids were analyzed.
In preparation for the isolation and identification of unlabelled steroid metabolites in the microsome preparations, 360 μg of 7MNT were dispensed into 24 tubes in parallel with identical tubes containing ^3 H-labeled 7MNT to be used as marker steroid. The mixtures were incubated for 60 min at 37° C., extracted twice with 2 ml of ethyl acetate, taken to dryness, redissolved in a mixture of dichloromethane/methanol (1:1, v/v) and quantitatively applied to silica gel coated TLC plates along with synthetically prepared suspected metabolites of radioactive 7MNT in a parallel lane. The plates were developed with chloroform/methanol (95:5, v/v). Spots corresponding to the radioactive marked spots were eluted with ethyl acetate and taken to dryness.
(§3) For isolation of radioactive metabolites, the procedure was the same as for unlabeled metabolites, except that each tube contained 50,000 CPM of ^3 H-labeled 7MNT.
(§4) In this series of experiments, the decreases in the levels of testosterone,19-nortestosterone, and 7MNT were followed over a two-hour period of incubation with microsomal or cytosolic fractions of rat liver. […] Catabolism of 19NT was maximum at 30 min, with no further change beyond that, leaving a persistent unmetabolized residue of about 20 percent of the added steroid. After 30 min of incubation, 85 percent of the 7MNT remained unaltered; forty percent of the 7MNT was recovered after 2h.

[2] = Metabolism by rat liver 13K supernatant fraction; type: in vitro ADME; conditions: 30 min, 37° C., system enriched with NADPH
Description: as §1
as §2, with “Incubations were quenched with 2 ml of ethyl acetate, vortexed briefly, and frozen in a dry ice-alcohol bath. The ethyl acetate was separated from the frozen aqueous phase. Extraction was performed again in the same way.” left out, “analyzed. […]” for “analyzed.”

[3] = Metabolism (5α reduction) of 3H-androgens by rat ventral prostate homogenate; type: in vitro ADME; conditions: for metabolism / 5α reduction in prostate (in words): prostate homogenate; for metabolised at 0.5 h: rat, ventral prostate homogenate, ventral prostate, androgen = 100%, 30 min incubation, read-out: Conversion of 5α reduced metabolites: 5α-dihydro-steroid
Description: To study metabolism in rat prostate, ventral prostates (1 g) were collected in ice-cold saline. All subsequent operations were carried out at 0°-4° C. The tissues were washed three times with homogenizing buffer (50 mM tris, 1.5 mM EDTA, 1 mM dithiothreitol and 10% glycerol, pH 7.5) and then homogenized in 4 vol. of the same buffer using an Ultra-turrax at a setting of 6. The prostates were given three 10 seconds bursts with intermittent cooling. The resulting homogenate was passed through four layers of cheesecloth and the filtrate was collected.
Incubation mixtures consisted of 50 nmol of unlabeled steroid, 40,000 CPM of the corresponding tritiated steroid and 1 μmol of NADPH in 0.2 ml of the buffer. The mixture was equilibrated for 10 min at 37° C. Reaction was started by adding 0.8 ml of homogenate (5.3 mg/ml protein). After 30 min of incubation, the mixture was cochromatographed with authentic steroids selected as possible metabolites.

[4] = Metabolism (5α reduction) of 3H-androgens by rat epididymis; type: in vitro ADME; conditions: for metabolised: rat, epididymis homogenate, pH 7.4, androgen = 100%, read-out: Conversion of 5α reduced metabolites: Diols
Description: The metabolism of T, 19NT and 7MNT by rat epididymis was also studied. Collected epididymides were processed as described for prostate. Incubations were performed in Tricine-buffer pH 7.4 as used for liver incubations. Thin layer chromatography of metabolic mixtures and standards was performed as described for prostate preparations.

[5] = Non-androgenic (e.g. progestational) activity
[6] = Metabolism (decrease of steroid level) in incubation with rat liver cytosol; type: in vitro ADME; conditions: for remaining at 2 h: 2h incubation, read-out: steroid remaining unmetabolized / recovered
Description: as §1, §2
The procedure used for the cytosol preparations was the same as that for microsomes, except that incubations were carried out for 90 min.
as §3, §4

[7] = background statement; cited from earlier work

What does the source list for C[C@@H]1CC2=CC(=O)CC[C@@H]2[C@H]2CC[C@]3(C)[C@@H](O)CC[C@H]3[C@@H]21 [7MNT, 7α-methyl-19-nortestosterone]?
metabolism in microsomes (in words) [1]: After 30 min of incubation, most of the 7MNT was retrieved unaltered; also recorded: Two significant 7α-methylated metabolites were observed: a less polar one representing the 3,17-dione, and a more polar one in the region of the diols or triols; also recorded: An additional quantitatively minor polar metabolite was also detected; remaining at 0.5 h ([1]; after 30 min of incubation, read-out: steroid remaining unaltered): 85%; steroid recovered ([1]; after 2h): forty; metabolism by 13K supernatant (in words) [2]: relatively resistant to metabolism under these incubation conditions; also recorded: Two metabolites, tentatively identified as 7α-methyl-5β-estrane-3, 17β-diol and 7α-methyl-estr-4-ene-3, 17-dione were found; also recorded: A minor highly polar metabolite was also observed; metabolism / 5α reduction in prostate (in words) [3]: substantially no 5α-dihydro product was formed in either tissue; also recorded: remained unmetabolized; also recorded: did not reduce or otherwise metabolize 7MNT; also recorded: not converted to the 5α-dihydro product; androgen potency (in words) (Androgenic potency): high potency; metabolism / 5α reduction in epididymis (in words) [4]: substantially no 5α-dihydro product was formed in either tissue; also recorded: epididymis did not reduce or otherwise metabolize 7MNT; non-androgenic activity (in words) [5]: lack of significant non-androgenic activity; metabolism in cytosol (in words) [6]: Half of the starting 7MNT was recovered after 2h incubation; also recorded: generated at least one metabolite that was more polar than the parent compound

What does the source list for C[C@]12CC[C@H]3[C@@H](CCC4=CC(=O)CC[C@@H]43)[C@@H]1CC[C@@H]2O [19NT, 19-nortestosterone]?
metabolism in microsomes (in words) [1]: qualitatively similar to that of T, though slower; persistent unmetabolized residue of the added steroid ([1]; beyond 30 min of two-hour incubation): about 20%; time of maximum catabolism ([1]; two-hour incubation): 30 min; metabolism / 5α reduction in prostate (in words) [3]: metabolized to the reduced product more slowly than testosterone; metabolised at 0.5 h [3]: 22%; metabolism / 5α reduction in epididymis (in words) [4]: converted to their respective reduced A ring metabolites; also recorded: metabolized more slowly than T; metabolised [4]: 57%; metabolism in cytosol (in words) [6]: still slower; remaining at 2 h [6]: 40%

Which “androgen potency versus testosterone (in words)” value [7] does the source give for C[C@]12CCC(=O)C[C@@H]1CC[C@@H]1[C@@H]2CC[C@]2(C)[C@@H](O)CC[C@@H]12 [DHT, 5α-dihydrotestosterone] here?
Its value is “much more potent androgen than testosterone”.

For C[C@]12CC[C@H]3[C@@H](CCC4=CC(=O)CC[C@@]43C)[C@@H]1CC[C@@H]2O [T, testosterone], which “metabolism in microsomes (in words)” value [1] is on record?
Its value is “completely metabolized by the microsomes before the earliest aliquot was taken”.

What about the “time before which steroid was completely metabolized” value ([1]; earliest aliquot taken at 15 min) of the same compound?
The value was under 15 min.

And the “metabolism / 5α reduction in prostate (in words)” value [3]?
Its value is “nearly half of the added T was reduced to 5α-DHT”.

What about the metabolised at 0.5 h [3] of the same compound?
The metabolised at 0.5 h was 48%.

What about the “metabolism / 5α reduction in epididymis (in words)” value [4] of the same compound?
Its value is “converted to their respective reduced A ring metabolites”.

And the metabolised [4]?
The metabolised was 86%.

And the remaining at 2 h [6]?
The remaining at 2 h was about 12%.
